System: SNU-C1
Experiment: cells
Format: cell-based
Conditions: assay number 30; concentration response

Row | Compound | Basal_Viability ATP SNU-C1 IC50/EC50 [µM]
1 | O=C(NC(=O)c1c(F)cccc1F)Nc1ccc(Cl)c(Oc2ncc(C(F)(F)F)cc2Cl)c1 [NCGC00166205-02] | > 20
2 | CCCCCCCCCCCCCCCCCCOP(=O)([O-])OC1CC[N+](C)(C)CC1 [NCGC00187909-02] | > 20
3 | CC(C)[C@@H]1CC[C@@H](C)C[C@H]1OC(=O)c1ccccc1O [NCGC00181042-02] | > 20

Same assay, conditions: basal

Row | Compound | IC50/EC50, Basal_Viability ATP SNU-C1 (assay number 30) [µM]
4 | CSc1ccc(/C=C2/C(C)=C(CC(=O)O)c3cc(F)ccc32)cc1 [NCGC00161601-02] | 11.9864

System: HCT116 cells treated with a GSK3β inhibitor
Experiment: cells
Format: cell-based
Conditions: GSK3b inh pretreated

Row | Compound | IC50/EC50, GSK3b inh pretreated_Viability ATP HCT116 (assay number 26) [µM]
5 | CSc1ccc(/C=C2/C(C)=C(CC(=O)O)c3cc(F)ccc32)cc1 [NCGC00161601-02] | > 20

Same assay, conditions: assay number 26; GSK3b inhibitor pretreated; concentration response

Row | Compound | GSK3b inh pretreated_Viability ATP HCT116 IC50/EC50 [µM]
6 | O=C(NC(=O)c1c(F)cccc1F)Nc1ccc(Cl)c(Oc2ncc(C(F)(F)F)cc2Cl)c1 [NCGC00166205-02] | 10.6205
7 | CCCCCCCCCCCCCCCCCCOP(=O)([O-])OC1CC[N+](C)(C)CC1 [NCGC00187909-02] | 5.7889
8 | CC(C)[C@@H]1CC[C@@H](C)C[C@H]1OC(=O)c1ccccc1O [NCGC00181042-02] | > 20

System: endothelial tube formation in co-cultures of ECFCs and ADSCs treated with VEGF
Experiment: cells
Format: cell-based, human
Conditions: not given

Row | Compound | VEGF_ADSC\ECFC Angio CD31 TubeArea IC50/EC50 [µM] | IC50/EC50, VEGF_ADSC\ECFC Angio CD31 TubeArea (assay number 2) [µM]
9 | O=C(NC(=O)c1c(F)cccc1F)Nc1ccc(Cl)c(Oc2ncc(C(F)(F)F)cc2Cl)c1 [NCGC00166205-02] | > 10 | 
10 | CSc1ccc(/C=C2/C(C)=C(CC(=O)O)c3cc(F)ccc32)cc1 [NCGC00161601-02] |  | > 10
11 | CCCCCCCCCCCCCCCCCCOP(=O)([O-])OC1CC[N+](C)(C)CC1 [NCGC00187909-02] | > 10 | 
12 | CC(C)[C@@H]1CC[C@@H](C)C[C@H]1OC(=O)c1ccccc1O [NCGC00181042-02] | > 10 | 

System: RKO
Experiment: cells
Format: cell-based
Conditions: assay number 29; concentration response

Row | Compound | Basal_Viability ATP RKO IC50/EC50 [µM]
13 | O=C(NC(=O)c1c(F)cccc1F)Nc1ccc(Cl)c(Oc2ncc(C(F)(F)F)cc2Cl)c1 [NCGC00166205-02] | 11.8144
14 | CCCCCCCCCCCCCCCCCCOP(=O)([O-])OC1CC[N+](C)(C)CC1 [NCGC00187909-02] | 2.0992
15 | CC(C)[C@@H]1CC[C@@H](C)C[C@H]1OC(=O)c1ccccc1O [NCGC00181042-02] | > 20

Same assay, conditions: basal

Row | Compound | IC50/EC50, Basal_Viability ATP RKO (assay number 29) [µM]
16 | CSc1ccc(/C=C2/C(C)=C(CC(=O)O)c3cc(F)ccc32)cc1 [NCGC00161601-02] | > 20

System: DLD-1
Experiment: cells
Format: cell-based
Conditions: assay number 23; concentration response

Row | Compound | Basal_Viability ATP DLD-1 IC50/EC50 [µM]
17 | O=C(NC(=O)c1c(F)cccc1F)Nc1ccc(Cl)c(Oc2ncc(C(F)(F)F)cc2Cl)c1 [NCGC00166205-02] | > 20
18 | CCCCCCCCCCCCCCCCCCOP(=O)([O-])OC1CC[N+](C)(C)CC1 [NCGC00187909-02] | > 20
19 | CC(C)[C@@H]1CC[C@@H](C)C[C@H]1OC(=O)c1ccccc1O [NCGC00181042-02] | > 20

Same assay, conditions: basal

Row | Compound | IC50/EC50, Basal_Viability ATP DLD-1 (assay number 23) [µM]
20 | CSc1ccc(/C=C2/C(C)=C(CC(=O)O)c3cc(F)ccc32)cc1 [NCGC00161601-02] | > 20

System: Colo320
Experiment: cells
Format: cell-based
Conditions: assay number 27; concentration response

Row | Compound | Basal_Viability ATP Colo 320 IC50/EC50 [µM]
21 | O=C(NC(=O)c1c(F)cccc1F)Nc1ccc(Cl)c(Oc2ncc(C(F)(F)F)cc2Cl)c1 [NCGC00166205-02] | > 20
22 | CCCCCCCCCCCCCCCCCCOP(=O)([O-])OC1CC[N+](C)(C)CC1 [NCGC00187909-02] | 2.358
23 | CC(C)[C@@H]1CC[C@@H](C)C[C@H]1OC(=O)c1ccccc1O [NCGC00181042-02] | > 20

Same assay, conditions: basal

Row | Compound | IC50/EC50, Basal_Viability ATP Colo 320 (assay number 27) [µM]
24 | CSc1ccc(/C=C2/C(C)=C(CC(=O)O)c3cc(F)ccc32)cc1 [NCGC00161601-02] | > 20

System: HT-29
Experiment: cells
Format: cell-based
Conditions: assay number 28; concentration response

Row | Compound | Basal_Viability ATP HT-29 IC50/EC50 [µM]
25 | O=C(NC(=O)c1c(F)cccc1F)Nc1ccc(Cl)c(Oc2ncc(C(F)(F)F)cc2Cl)c1 [NCGC00166205-02] | > 20
26 | CCCCCCCCCCCCCCCCCCOP(=O)([O-])OC1CC[N+](C)(C)CC1 [NCGC00187909-02] | 6.9016
27 | CC(C)[C@@H]1CC[C@@H](C)C[C@H]1OC(=O)c1ccccc1O [NCGC00181042-02] | > 20

Same assay, conditions: basal

Row | Compound | IC50/EC50, Basal_Viability ATP HT-29 (assay number 28) [µM]
28 | CSc1ccc(/C=C2/C(C)=C(CC(=O)O)c3cc(F)ccc32)cc1 [NCGC00161601-02] | > 20

System: ECFC/ADSC co-culture cell nuclei number
Experiment: not given
Conditions: not given

Row | Compound | VEGF_ADSC\ECFC Angio Hoechst NucArea IC50/EC50 [µM] | IC50/EC50, VEGF_ADSC\ECFC Angio Hoechst NucArea (assay number 3) [µM]
29 | O=C(NC(=O)c1c(F)cccc1F)Nc1ccc(Cl)c(Oc2ncc(C(F)(F)F)cc2Cl)c1 [NCGC00166205-02] | > 10 | 
30 | CSc1ccc(/C=C2/C(C)=C(CC(=O)O)c3cc(F)ccc32)cc1 [NCGC00161601-02] |  | > 10
31 | CCCCCCCCCCCCCCCCCCOP(=O)([O-])OC1CC[N+](C)(C)CC1 [NCGC00187909-02] | > 10 | 
32 | CC(C)[C@@H]1CC[C@@H](C)C[C@H]1OC(=O)c1ccccc1O [NCGC00181042-02] | > 10 | 

System: HCT116
Experiment: cells
Format: cell-based
Conditions: assay number 25; basal; concentration response

Row | Compound | Basal_Viability ATP HCT116 IC50/EC50 [µM]
33 | O=C(NC(=O)c1c(F)cccc1F)Nc1ccc(Cl)c(Oc2ncc(C(F)(F)F)cc2Cl)c1 [NCGC00166205-02] | > 20
34 | CCCCCCCCCCCCCCCCCCOP(=O)([O-])OC1CC[N+](C)(C)CC1 [NCGC00187909-02] | 3.1704
35 | CC(C)[C@@H]1CC[C@@H](C)C[C@H]1OC(=O)c1ccccc1O [NCGC00181042-02] | > 20

Same assay, conditions: basal

Row | Compound | IC50/EC50, Basal_Viability ATP HCT116 (assay number 25) [µM]
36 | CSc1ccc(/C=C2/C(C)=C(CC(=O)O)c3cc(F)ccc32)cc1 [NCGC00161601-02] | > 20

System: SW480
Experiment: cells
Format: cell-based
Conditions: assay number 24; concentration response

Row | Compound | Basal_Viability ATP SW480 IC50/EC50 [µM]
37 | O=C(NC(=O)c1c(F)cccc1F)Nc1ccc(Cl)c(Oc2ncc(C(F)(F)F)cc2Cl)c1 [NCGC00166205-02] | > 20
38 | CCCCCCCCCCCCCCCCCCOP(=O)([O-])OC1CC[N+](C)(C)CC1 [NCGC00187909-02] | 0.8519
39 | CC(C)[C@@H]1CC[C@@H](C)C[C@H]1OC(=O)c1ccccc1O [NCGC00181042-02] | > 20

Same assay, conditions: basal

Row | Compound | IC50/EC50, Basal_Viability ATP SW480 (assay number 24) [µM]
40 | CSc1ccc(/C=C2/C(C)=C(CC(=O)O)c3cc(F)ccc32)cc1 [NCGC00161601-02] | 19.964
